Assay results: US9737075B2, “Synergistic benzoxaborole-containing anti-fungicidal composition” (The Penn State Research Foundation, priority 2015, dated 2017)
In brackets after ≈: the same amount, converted by molar mass. Where two headings read alike, the source gives them in different places.

How the values were obtained:
Assay type in all cases: cell-based
Aspergillus niger = experiment: Broth microdilution MIC of individual antifungals; settings: for MIC: read-out: Independent MIC
Botrytis cinerea 10-1728 = experiment: Broth microdilution MIC of individual antifungals; settings: Botrytis cinerea 10-1728, individual antifungal, 25% PDB, about 25° C., 72 hours, range over N independent triplicate studies; for MIC: 101728, read-out: Independent MIC
Magnaporthe grisea = experiment: microbe, parasite or virus in culture; settings: for Independent MIC: Magnaporthe grisea, individual antifungal, 25% PDB, about 25° C., 72 hours, range over N independent triplicate studies; for MIC: Pyricularia oryzae, 72 h, read-out: Independent MIC
Sclerotinia homoeocarpa = experiment: Broth microdilution MIC of individual antifungals; settings: Sclerotinia homoeocarpa, individual antifungal, 25% PDB, about 25° C., 72 hours, range over N independent triplicate studies; for MIC: Clarireedia homoeocarpa, read-out: Independent MIC
Mucor sp. = experiment: Broth microdilution MIC of individual antifungals; settings: individual antifungal, 25% PDB, about 25° C., 72 hours, range over N independent triplicate studies
Stachybotrys chartarum = experiment: Broth microdilution MIC of individual antifungals; settings: individual antifungal, 25% PDB, about 25° C., 72 hours, range over N independent triplicate studies, read-out: Independent MIC
Aureobasidium pullulans = experiment: Broth microdilution MIC of individual antifungals; settings: read-out: Independent MIC
Alternaria solani = experiment: Broth microdilution MIC of individual antifungals; settings: individual antifungal, 25% PDB, about 25° C., 72 hours, range over N independent triplicate studies; for MIC: read-out: Independent MIC
Rhizopus sp. = experiment: Broth microdilution MIC of individual antifungals; settings: for MIC: Rhizopus, 72 h, read-out: Independent MIC
Aspergillus fumigatus = experiment: Broth microdilution MIC of individual antifungals; settings: individual antifungal, 25% PDB, about 25° C., 72 hours, range over N independent triplicate studies; for MIC: read-out: Independent MIC
Botrytis cinerea B17 = experiment: Broth microdilution MIC of individual antifungals; settings: Botrytis cinerea B17; individual antifungal, 25% PDB, about 25° C., 72 hours; range over N independent triplicate studies; read-out: Independent MIC
Phytophthora pini = experiment: Broth microdilution MIC of individual antifungals; settings: individual antifungal, 25% PDB, about 25° C., 72 hours, range over N independent triplicate studies
Penicillium chrysogenum = experiment: Broth microdilution MIC of individual antifungals; settings: individual antifungal, 25% PDB, about 25° C., 72 hours, range over N independent triplicate studies, read-out: Independent MIC
Aspergillus flavus = experiment: Broth microdilution MIC of individual antifungals; settings: individual antifungal, 25% PDB, about 25° C., 72 hours, range over N independent triplicate studies, read-out: Independent MIC
[1] = tested on: Colletotrichum orbiculare; experiment: Broth microdilution MIC of individual antifungals; settings: individual antifungal, 25% PDB, about 25° C., 72 hours, range over N independent triplicate studies; for MIC: read-out: Independent MIC
Fusarium graminearum = experiment: microbe, parasite or virus in culture; settings: Fusarium graminearum; for MIC: 72 h, read-out: Independent MIC
[2] = tested on: Mycosphaerella zeae-maydis; experiment: Broth microdilution MIC of individual antifungals; settings: Didymella maydis, individual antifungal, 25% PDB, about 25° C., 72 hours, range over N independent triplicate studies
[3] = tested on: Fusarium solani f. sp. pisi (MP VI); experiment: Broth microdilution MIC of individual antifungals; settings: Fusarium solani f. sp. pisi (MP VI); individual antifungal, 25% PDB, about 25° C., 72 hours; range over N independent triplicate studies; read-out: Independent MIC
Candida albicans = experiment: Broth microdilution MIC of individual antifungals; settings: individual antifungal, 25% PDB, about 25° C., 72 hours, range over N independent triplicate studies, read-out: Independent MIC
Fusarium verticillioides = experiment: Broth microdilution MIC of individual antifungals; settings: individual antifungal, 25% PDB, about 25° C., 72 hours, range over N independent triplicate studies, read-out: Independent MIC
[4] = individual antifungal, 25% PDB, about 25° C., 72 hours, range over N independent triplicate studies
[5] = Rhizopus sp., individual antifungal, 25% PDB, about 25° C., 72 hours, range over N independent triplicate studies

Row | Compound | MIC (Sclerotinia homoeocarpa) | MIC (Mucor sp.) | MIC (Alternaria solani) | MIC (Aspergillus fumigatus) | MIC (Aspergillus niger; [4]) | MIC (Botrytis cinerea 10-1728) | MIC (Magnaporthe grisea) | MIC (Rhizopus sp.; [5]) | further results
1 | Cn1cc(C(=O)Nc2ccccc2-c2cc(F)c(F)c(F)c2)c(C(F)F)n1 [Fluxapyroxad, fluxapyroxad] |  |  |  |  |  |  |  |  | Independent MIC (Aspergillus niger; [4]): (0.39-0.4) μg/mL; Independent MIC (Botrytis cinerea 10-1728): 6.25 µg/mL; Independent MIC (Magnaporthe grisea): 3.13 µg/mL
2 | CC(C)NC(=O)N1CC(=O)N(c2cc(Cl)cc(Cl)c2)C1=O [Iprodione, ipordione] | 4 to 10 µg/mL | 1.56 to 6.25 µg/mL | 3.12 to 6.25 µg/mL | 12.5 to 50 µg/mL | 50 to 100 µg/mL | 15 to 25 µg/mL | 12.5 µg/mL (≈ 37.9 µM) |  | MIC (Stachybotrys chartarum): 25 to 30 µg/mL; MIC (Aureobasidium pullulans; 72 h): 12.5 to 50 µg/mL; MIC (Rhizopus sp.): 3.12 to 12.5 µg/mL; MIC (Botrytis cinerea B17): 16 to 20 µg/mL
3 | C[C@H]1O[C@H](O[C@H]2[C@H](O)[C@@H](O)[C@@H](O)[C@H](O)[C@@H]2O)[C@@H](N)C[C@@H]1NC(=N)C(=O)O [Kasugamycin] |  |  |  |  |  |  |  |  | Independent MIC (Sclerotinia homoeocarpa): 100 µg/mL; Independent MIC (Alternaria solani): (100-200) μg/mL; Independent MIC (Botrytis cinerea 10-1728): 200 µg/mL; Independent MIC (Phytophthora pini): 200 µg/mL
4 | CC#Cc1cc(C)nc(Nc2ccccc2)n1 [Mepanipyrim, mepanipyrim] | 0.098 to 0.19 µg/mL |  |  | 0.05 to 0.1 µg/mL | 25 µg/mL | 50 to 100 µg/mL |  | 50 µg/mL | MIC (Penicillium chrysogenum): 0.025 to 0.048 µg/mL; MIC (Aspergillus flavus): 0.75 µg/mL
5 | COCC(=O)N(c1c(C)cccc1C)C(C)C(=O)OC (stereo not shown) [Metalaxyl, metalaxyl] | 128 to 200 µg/mL |  |  | 400 µg/mL | 400 µg/mL |  |  | 400 µg/mL | MIC (Botrytis cinerea B17): 50 to 64 µg/mL; MIC (Aspergillus flavus): 400 µg/mL
6 | CC(C)CC(C)c1sccc1NC(=O)c1cn(C)nc1C(F)(F)F (stereo not shown) [Penthiopyrad, penthiopyrad] |  |  |  |  |  | 15 to 25 µg/mL | 1.56 µg/mL (≈ 4.34 µM) |  | MIC [1]: 50 to 100 µg/mL; MIC (Aspergillus niger; 72 h): 0.78 to 1.56 µg/mL; MIC (Aspergillus flavus): 100 µg/mL
7 | CO/C=C(/C(=O)OC)c1ccccc1COc1cccc(C(F)(F)F)n1 [Picoxystrobin, picoxystrobin] |  |  |  |  |  |  |  |  | Independent MIC (Sclerotinia homoeocarpa): 1.56 µg/mL; Independent MIC (Mucor sp.): (50-200) μg/mL; Independent MIC (Aspergillus fumigatus): (25-50) μg/mL; Independent MIC (Botrytis cinerea 10-1728): (100-200) μg/mL; Independent MIC (Fusarium graminearum; [4]): (200-400) μg/mL; Independent MIC (Magnaporthe grisea): (3.13-6.25) μg/mL
8 | C=CCOC1=NS(=O)(=O)c2ccccc21 [Probenazole, probenazole] | 50 to 100 µg/mL | 200 µg/mL | 200 µg/mL |  |  | 100 µg/mL | 100 µg/mL (≈ 448 µM) |  | MIC [2]: 200 µg/mL; MIC (Phytophthora pini): 200 µg/mL
9 | CCCOC(=O)NCCCN(C)C [Propamocarb, propamocarb] | 200 µg/mL | 200 to 400 µg/mL | 100 to 200 µg/mL |  |  | 100 to 400 µg/mL |  |  | 
10 | CCCC1COC(Cn2cncn2)(c2ccc(Cl)cc2Cl)O1 (stereo not shown) [Propiconazole, propiconazole] | 0.5 to 1 µg/mL | 50 µg/mL | 100 to 160 µg/mL | 2.5 to 6.25 µg/mL | 12.5 µg/mL | 1.25 to 3.12 µg/mL | 1.56 µg/mL (≈ 4.56 µM) | 12.5 to 24 µg/mL | MIC (Stachybotrys chartarum): 6.25 to 12.5 µg/mL; MIC (Aureobasidium pullulans; 72 h): 1.56 to 6 µg/mL; MIC [2]: 3 to 6.25 µg/mL; MIC [3]: 200 µg/mL; MIC (Candida albicans): 100 to 200 µg/mL; Independent MIC (Rhizopus sp.; [5]): 12.5 µg/mL; MIC [1]: 3.12 µg/mL; MIC (Fusarium verticillioides): 0.5 to 2 µg/mL; MIC (Fusarium graminearum): 12.5 to 25 µg/mL (≈ 36.5 to 73.1 µM); MIC (Botrytis cinerea B17): 1 to 2 µg/mL; MIC (Penicillium chrysogenum): 6.25 to 12.5 µg/mL; MIC (Phytophthora pini): 6.25 µg/mL; MIC (Aspergillus flavus): 6.25 to 12.5 µg/mL
11 | COC(=O)N(OC)c1ccccc1COc1ccn(-c2ccc(Cl)cc2)n1 [Pyraclostrobin, pyraclostrobin] | 0.5 µg/mL | 100 µg/mL | 50 to 100 µg/mL | 20 to 25 µg/mL | 25 to 50 µg/mL | 200 µg/mL | 0.02 to 0.025 µg/mL (≈ 0.0516 to 0.0645 µM) | 50 µg/mL | MIC (Stachybotrys chartarum): 1.56 to 4 µg/mL; MIC (Aureobasidium pullulans; [4]): 0.188 to 0.78 µg/mL; MIC [2]: 2 to 4 µg/mL; MIC [3]: 100 to 200 µg/mL; MIC [1]: 3.12 µg/mL; MIC (Fusarium graminearum): 200 µg/mL (≈ 516 µM); MIC (Botrytis cinerea B17): 3.75 to 8 µg/mL; MIC (Penicillium chrysogenum): 0.1 to 0.4 µg/mL; MIC (Phytophthora pini): 1.56 µg/mL
12 | Fc1ccc(Oc2ccnc3cc(Cl)cc(Cl)c23)cc1 [Quinoxyfen, quinoxyfen] |  |  |  |  |  | 50 to 100 µg/mL |  | 100 to 200 µg/mL | 
13 | O=[N+]([O-])c1c(Cl)c(Cl)c(Cl)c(Cl)c1Cl [Quintozene, quintozene] |  |  |  |  |  |  |  |  | Independent MIC [1]: (25-50) μg/mL; Independent MIC (Botrytis cinerea 10-1728): 50 µg/mL
14 | C=CC1(C)OC(=O)N(c2cc(Cl)cc(Cl)c2)C1=O (stereo not shown) [Vinclozolin, vinclozolin] | 4 to 5 µg/mL | 100 to 200 µg/mL |  | 100 to 200 µg/mL | 50 to 100 µg/mL | 100 to 400 µg/mL |  | 100 µg/mL | MIC [2]: 6.25 to 16 µg/mL
15 | CCC(C)(NC(=O)c1cc(Cl)c(C)c(Cl)c1)C(=O)CCl (stereo not shown) [Zoxamide, zoxamide] |  |  |  |  |  | 0.39 to 1.6 µg/mL |  |  | 
